Results from patent publication US9345711B2, “Methods for acute and long-term treatment of drug addiction” (DemeRx, Inc., priority 2014, dated 2016).
“Also recorded” adds a separate entry of the source.

Key:
[1] = Pharmacokinetics of noribogaine in healthy volunteers after single oral dose (plasma, LCMSMS)
[2] = Pupillometry (pupillary miosis) in healthy volunteers; assay type: in vivo, human
Description: (§1) Pulse oximetry and capnography data were collected continuously using a GE Carescape B650 monitoring system from 2 hours prior to dosing and until six hours after dosing, and thereafter at 12, 24, 48 and 72 hours post-dosing. […] Pupillary miosis was assessed by pupillometry.

[3] = Cold pressor test (analgesic effect) in healthy volunteers; assay type: in vivo, human
Description: Analgesic effect was assessed based on duration of hand immersion in ice water and on visual analog scale (VAS) pain scores upon hand removal from the water bath.
(§2) Safety and tolerability of noribogaine were tested in the group of volunteers from Example 1. […] Safety evaluations included clinical monitoring, recording of adverse events (AEs), safety laboratory tests, vital signs, ECG telemetry from −2 h to 6 h after dosing, and 12-lead electrocardiograms (ECGs) up to 216 hours post-dosing.

[4] = Safety and tolerability of noribogaine in healthy volunteers (adverse events, vital signs, ECG); assay type: in vivo, human
Description: as §1, §2

[5] = Efficacy of noribogaine in opioid-dependent participants: time to resumption of opioid substitution treatment; assay type: in vivo, human; settings: for average time to resumption of opioids: single oral dose
Description: (§3) The efficacy of noribogaine in humans was evaluated in opioid-dependent participants in a randomized, placebo-controlled, double-blind trial. […] See U.S. Provisional Application Ser. No. 61/852,485, filed Mar. 15, 2013, which is incorporated herein by reference in its entirety.
(§4) In the first cohort, six patients were orally administered a single dose of 60 mg noribogaine, and three patients received placebo. In the second cohort, five patients were orally administered a single dose of 120 mg noribogaine, and three patients received placebo.
FIG. 3 indicates the serum noribogaine concentration over time. Serum concentrations for 120 mg dose (black squares) are estimated based on data from the 60 mg dose (gray diamonds).

[6] = Safety and QT interval in opioid-dependent participants; assay type: in vivo, human; settings: for Mean prolongation of the QT interval: opioid-dependent patients
Description: as §3, §4

[7] = plasma glucuronide after single oral 30 mg noribogaine, healthy volunteers, mean (SD), n = 6
[8] = plasma glucuronide after single oral 60 mg noribogaine, healthy volunteers, mean (SD), n = 6
[9] = after adjusting for baseline differences, p>0.9
[10] = 3 mg dose group, healthy volunteers
[11] = opioid-dependent participants, single oral 60 mg or 120 mg
[12] = across dose groups (3-60 mg), healthy volunteers

What does the source list for CC[C@H]1C[C@@H]2C[C@H]3c4[nH]c5ccc(OC6OC(C(=O)O)C(O)C(O)C6O)cc5c4CCN(C2)[C@@H]13 (stereo partly drawn) [Noribogaine glucuronide]?
AUC0-216 of noribogaine glucuronide [1, 7]: 25.7 (9.1) ng · hr/ml; AUC0-∞ of noribogaine glucuronide [1, 7]: 25.8 (9.3) ng · hr/ml; Cmax of noribogaine glucuronide [1, 7]: 1.8 (0.6) ng/ml; Tmax of noribogaine glucuronide [1, 7]: 3.0 (0.6) hr; t1/2 of noribogaine glucuronide [1, 7]: 20.6 (4.9) hr; AUC0-216 of noribogaine glucuronide [1, 8]: 65.0 (21.5) ng · hr/ml; AUC0-∞ of noribogaine glucuronide [1, 8]: 67.1 (21.9) ng · hr/ml; Cmax of noribogaine glucuronide [1, 8]: 4.1 (1.2) ng/ml; Tmax of noribogaine glucuronide [1, 8]: 3.8 (1.2) hr; t1/2 of noribogaine glucuronide [1, 8]: 23.1 (3.0) hr; time of peak glucuronide concentrations after noribogaine dosing ([1]; plasma, 30 mg and 60 mg noribogaine dose groups): 3 to 4 h

For CC[C@H]1CC2C[C@H]3c4[nH]c5ccc(O)cc5c4CCN(C2)C13 [Noribogaine], which “pupil diameter, each dose group vs placebo (ANOVA)” value [2, 9] is on record?
Its value is “no statistically significant differences”.

And the pupillary constriction ([2]; healthy volunteers, 3-60 mg single oral dose)?
The pupillary constriction was “no evidence of pupillary constriction”.

What about the “VAS pain scores, each dose group vs placebo (ANOVA)” value ([3]; after adjusting for baseline differences, p=0.17) of the same compound?
Its value is “no statistically significant differences”.

What about the “duration of hand immersion, each dose group vs placebo (ANOVA)” value [3, 9] of the same compound?
Its value is “no statistically significant differences”.

And the “analgesic effect in the cold pressor test” value ([3]; healthy volunteers, 3-60 mg single oral dose, 1° C. water)?
The value was “no analgesic effect”.

And the “adverse events, Mild” value [4, 10]?
The value was “Dizziness; also recorded: Epistaxis; also recorded: Headache; also recorded: Back pain”.

What about the “adverse events, Moderate” value [4, 10] of the same compound?
The value was “Headache”.

What about the “number of adverse events reported” value ([4]; 3 mg dose group, two subjects) of the same compound?
Its value is “five adverse events”.

And the “adverse events, Mild” value ([4]; 10 mg dose group, healthy volunteers)?
Its value is “Headache”.

What about the “number of adverse events reported” value ([4]; 10 mg dose group, single subject) of the same compound?
Its value is “one adverse event”.

And the “adverse events, Mild” value ([4]; 30 mg dose group, healthy volunteers)?
Its value is “Headache”.

And the “number of adverse events reported” value ([4]; 30 mg dose group, single subject)?
The value was “one adverse event”.

And the “intensity of adverse events” value ([4]; all dose groups, all resolved prior to study completion)?
The value was “mild-moderate intensity”.

And the “changes in oximetry, capnography or respiratory rate” value ([4]; healthy volunteers, 3-60 mg)?
The value was “no changes in oximetry or capnography, or changes in respiratory rate”.

What about the “changes in vital signs or safety laboratory tests” value ([4]; healthy volunteers, 3-60 mg) of the same compound?
The value was “no changes in vital signs or safety laboratory tests of note”.

What about the “average time to resumption of opioids” value ([5]; first cohort, blinded: 60 mg noribogaine (6 patients) or placebo (3 patients)) of the same compound?
The value was “approximately 8.7 hours”.

And the “time to resumption of opioids longer than reported for untreated patients in a similar study” value ([5]; first cohort, blinded: 60 mg noribogaine or placebo)?
Its value is roughly 2 h.

And the “average time to resumption of OST” value ([5]; five presumed noribogaine-treated patients of second cohort (imputed, 120 mg), placebo construed from no QT prolongation)?
Its value is “approximately 26.8 hours”.

And the “impact on withdrawal symptoms in addicted patients” value ([5]; lower dosing of noribogaine, human clinical studies (summary statement))?
The value was “minimal impact on withdrawal symptoms”.

What about the “average time to resumption of opioids” value ([5]; second cohort, blinded: 120 mg noribogaine (5 patients) or placebo (3 patients)) of the same compound?
The value was “approximately 23 hours”.

And the “Mean prolongation of the QT interval” value ([6]; first cohort (60 mg noribogaine or placebo))?
Its value is “less than 10 ms”.

What about the adverse effects [6, 11] of the same compound?
The adverse effects was “No adverse effects”.

And the hallucinatory effects [6, 11]?
Its hallucinatory effects is “no hallucinatory effects”.

What about the “Mean prolongation of the QT interval” value ([6]; second cohort (120 mg noribogaine or placebo)) of the same compound?
The value was “less than 40 ms”.

And the “prolongation of the treated patient's QT interval” value ([6]; summary statement, increases in opioid addicted patients compared to healthy individuals)?
The value was “dose dependent prolongation”.

And the “dose-proportionality of Cmax and AUC” value ([1]; 3-60 mg single oral doses, linear regression)?
The value was “increased linearly with dose”.

What about the Mean half-life estimates [1, 12] of the same compound?
Its Mean half-life estimates is 28 to 50 h.

What about the Volume of distribution [1, 12] of the same compound?
Its Volume of distribution is 1417 to 3086 L.

And the CL/F ([1]; healthy male volunteers, single oral 3 mg noribogaine, mean (SD), n = 6)?
Its CL/F is 41.4 (7.0) L/h.

And the CL/F ([1]; healthy male volunteers, single oral 10 mg noribogaine, mean (SD), n = 6)?
Its CL/F is 42.3 (12.0) L/h.

And the CL/F ([1]; healthy male volunteers, single oral 30 mg noribogaine, mean (SD), n = 6)?
The CL/F was 46.9 (16.4) L/h.

And the Tmax ([1]; healthy male volunteers, single oral 30 mg noribogaine, plasma, mean (SD), n = 6)?
Its Tmax is 1.8 (0.6) hr.

What about the CL/F ([1]; healthy male volunteers, single oral 60 mg noribogaine, mean (SD), n = 6) of the same compound?
Its CL/F is 34.0 (11.4) L/h.

And the “time of peak concentrations after oral dosing” value ([1]; healthy volunteers, 3-60 mg dose groups)?
The value was 2 to 3 h.
